Consider two molecules from patent US20160046592A1, “PHARMACEUTICAL COMPOSITION FOR THE TREATMENT OF DIABETES” (Ajinomoto Co., Inc., priority 2013, published 2016).

Counter-ions that a name gives are not always drawn.

Experiment [1] concerns the target T1, PPAR-α (Homo sapiens, UniProt Q07869).
T1 construct: expressed in transfected cells; host or cells: CV-1 (African green monkey kidney)
T1 sequence (Q07869 167-468): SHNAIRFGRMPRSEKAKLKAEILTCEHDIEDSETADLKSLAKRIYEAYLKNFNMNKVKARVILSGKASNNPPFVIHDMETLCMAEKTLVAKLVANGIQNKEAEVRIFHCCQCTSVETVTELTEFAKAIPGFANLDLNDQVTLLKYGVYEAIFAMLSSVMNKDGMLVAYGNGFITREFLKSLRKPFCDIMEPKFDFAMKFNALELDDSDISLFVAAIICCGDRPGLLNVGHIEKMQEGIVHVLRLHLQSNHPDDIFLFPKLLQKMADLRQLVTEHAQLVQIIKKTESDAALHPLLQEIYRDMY
The experiment is described as follows: Measurement of PPAR-α activity (GAL4 luciferase reporter assay in CV-1 cells). It is filed as cell-based. The note with it: 100(A/B): A = maximum PPAR-α activity of test compound at 3, 10, 30 and 100 μM, B = activity of the compound of WO/2011/058154 at 100 μM, 18 to 20 hours, read-out: Relative fold induction (%) of PPAR α. Put shortly:
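CV-1 cells were co-transfected with a UAS×5-TK-Luc reporter and a hGR-GAL4-hPPARα (LBD 167-468aa) expression plasmid, then dosed with compound for 18 to 20 h at 37 °C, with Bright-Glo luciferase read-out. Relative fold induction (%) is the maximum activity at 3, 10, 30 or 100 μM divided by the activity of a WO/2011/058154 reference compound at 100 μM.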
A general note: A reporter such as luciferase makes a cellular process visible.

Experiment [2] relates to Rat skeletal muscle-derived L6 myoblasts (differentiated into myotube cells). In words: Evaluation of glycogen accumulation in L6. The note with it: [14C] glycogen from D-[U-C14] glucose, 3 hours incubation, 100% = compound of Example 1 of WO/2011/058154 at 30 μM. It is filed as cell-based. As for the experimental part:
The glycogen accumulation activity was evaluated in skeletal muscle cells according to the published article (ANALYTICAL BIOCHEMISTRY, Vol. 261: 159-163, 1998) by the following method. Rat skeletal muscle-derived L6 myoblasts (ATCC) were seeded in a 96-well collagen-coated plate (IWAKI, 4860-010) by using a growth medium (10% FBS-containing α-MEM medium (NACALAI TESQUE, INC., 21444-05)) under a condition of 4×10^4 cells/100 μL/well. After culturing under conditions of 37° C. and 5% CO2 overnight, the medium was replaced with a differentiation medium (2% FBS-containing α-MEM medium), followed by culturing for 3 days to differentiate the myoblasts into myotube cells. On the day of evaluation, the medium was replaced with a glucose-deprived medium (0.1% BSA-containing DMEM medium (Gibco, 11966)). After culturing for 4 hours, the medium was replaced with assay media (0.1% BSA-containing DMEM medium (NACALAI TESQUE, INC., 08456-65)) containing 0.6% DMSO and one of the test compounds at a concentration which was twice the final evaluation concentration at 15 μL/well. Further, an assay medium containing D-[U—C14] glucose (PerkinElmer Inc., NEC042V) at […] was added at 15 μL/well to adjust the final volume to 30 μL/well. Then, the cells were incubated under conditions of 37° C. and 5% CO2 for 3 hours. After the incubation, each medium was removed by suction with an aspirator, and the wells were rinsed with PBS at 200 μL/well twice. Then, 1 N NaOH was added at 50 μL/well, and the cells were lysed by incubation at 60° C. for 10 minutes. After the temperature of the lysed cells was returned to room temperature, each whole cell lysate and […] glycogen (Sigma-Aldrich, G8876) at 5 μL/well were added to a Multiscreen HTS (Millipore, MSFCN6B) to which 100% ethanol was added in advance at 100 μL/well, followed by incubation at 4° C. for 20 minutes. After the incubation, aspiration was conducted by using Multiscreen HTS Vacuum Manifold (Millipore), followed by rinse with 66% ethanol at 200 μL/well twice. After ethanol remaining on the filter was completely removed by drying, MicroScint40 (PerkinElmer Inc.) was added at 50 μL/well, the amount of [14C] glycogen was measured with TopCountNXT (PerkinElmer Inc.). The activity of each test compound was calculated by the following method. Specifically, the relative activity (%) was calculated as 100×(B−A)/(C−A), where A represents a value (cpm) measured for a well not containing the compound but containing only DMSO, B represents a value measured for a well containing the compound and DMSO, and C represents a value measured for a well containing the compound of Example 1 of WO/2011/058154 at a final concentration of 30 μM. EC50 representing the concentration of the compound at which an increase in activity by 50% was caused was calculated using XLfit (idbs).

As to `CSc1cc(F)c(F)cc1-c1ccc(OCc2cccc(C(=O)N3C[C@H](N(C)C)C[C@H]3C(=O)O)c2)cc1` [Example 63, (2S,4R)-1-[3-[[4-(4,5-Difluoro-2-methylsulfanyl-phenyl)phenoxy]methyl]benzoyl]-4-(dimethylamino)pyrrolidine-2-carboxylic Acid Trifluoroacetate], the Emax in experiment [1] came to 13%.
In the case of `COC[C@@H]1CC[C@@H](C(=O)O)N1C(=O)c1cccc(COc2ccc(-c3cc(F)c(F)cc3SC)cc2)c1` [Example 62, (2S,5S)-1-[3-[[4-(4,5-Difluoro-2-methylsulfanyl-phenyl)phenoxy]methyl]benzoyl]-5-(methoxymethyl)pyrrolidine-2-carboxylic Acid], in experiment [1], the Emax worked out at 14%. Further, in experiment [2], the EC50 is < 300 nM.

What is called EC50 is the concentration that produces a half-maximal response. Lower therefore signals an effect from little substance.
